Results from PMC12418948, “Intranasal Administration of KCNN2 Blocking Peptide Improves Deficits in Cognitive Flexibility in Mouse Model of Fetal Alcohol Spectrum Disorders” (International Journal of Neuropsychopharmacology, 2025).
pIC50: −log10 of the molar value. Positions of bridges follow the written chain, without caps; N, C: chain ends. Residues, ends and D or L forms follow the SMILES beside them. No end group written: not given here.

Experiments:
KCNN (SK) channel = settings: cited from earlier work
[1] = pregnant CD-1 mice, i.p. 4.0 g/kg/day 25% ethanol at E16 and E17; from 30 minutes after injection at E16 to 1 hour after injection at E17; cited from earlier work
Procedure: All mice (CD-1) used in this study were purchased from Charles River Laboratories and were maintained in-house on a light–dark cycle (lights on 6:00 AM to 6:00 PM) at a constant temperature (22 ± 1°C). Pregnant mice received i.p. injections of 25% ethanol in PBS at 4.0 g/kg/day or PBS only as the control at embryonic day (E) 16 and E17. The dam’s blood alcohol concentration ranges from approximately 140 to 300 mg/dL (from 30 minutes after injection at E16 to 1 hour after injection at E17).[35] All procedures were approved by the institutional animal care and use committee of the Children’s Nat ...

human KCNN2 = human KCNN2 (Homo sapiens, UniProt Q9H2S1); assay: Thallium flux assay, KCNN2 channel block; type: cell-based; settings: HEK293 stably expressing human KCNN2; thallium flux, FLIPR Potassium Assay Kit, FLIPR TETRA; 4 concentrations, n = 4; 0% = 1 μM A23187, 100% = 3 μM UCL1684
Procedure: The effect of tamapin and Lei-Dab7 to block the KCNN2 channel was assessed by the thallium flux (potassium ion surrogate) assay using FLIPR Potassium Assay KIT (Molecular Devices, CA) and a FLIPR TETRA fluorescence imaging plate reader (Molecular Devices, CA). Human embryonic kidney (HEK) 293 cell line stably expressing human KCNN2 (Charles River, MA) were plated on BioCoat Poly-D-Lysine 384-well Black/Clear Plates (BD Biosciences, NJ) at 15 000 to 30 000 cells per well and incubated at 37°C overnight or until cells form near confluent monolayer. A baseline fluorescence was recorded during the pre-incubation period, followed by activation in the stimulus buffer (K^+-free buffer with 5 mM Tl^+). The effects of tamapin and Lei-Dab7 on KCNN2 to inhibit KCNN2 channel were evaluated at 4 different concentrations (n = 4) each, based on fluorescence changes due to the treatments. The signal elicited by the respective positive control agonist [1 μM A23187 (Tocris, UK)] was set to 0% inhibition, and the signal in the presence of the respective positive control antagonists [3 μM UCL1684 (Tocris, UK)] was set to 100% inhibition. The IC50 values were defined as the concentration at which the percent inhibition equals 50.
To determine the dose of Lei-Dab7 to be tested, we compared the effect of Lei-Dab7 and tamapin in blocking human KCNN2 expressed in HEK293 cells using a thallium-based potassium ion channel assay. […] Based on the effective dose of tamapin in mitigating motor skill–learning deficits in PAE mice (15 μg/kg body weight via i.p.)[17] and higher brain uptake of therapeutics by intranasal delivery than by i.p. delivery, we chose a dose of 3.0 μg/kg body weight to test the effect of intranasal administration of Lei-Dab7.
Supplementary Figure 3. Concentration-response relationships of Lei-Dab7 and Tamapin on the Inhibition of KCNN2 channels. (A, B) The concentration-response relationships of Lei-Dab7 (A) and Tamapin (B) on the inhibition of KCNN2 (SK2) channels examined by the thallium flux assay are presented. […]

[2] = i.p. administration, PAE mice; cited from earlier work
Text: KCNN2 plays a key role in regulating neuronal excitability by controlling the medium afterhyperpolarization.[20] Previous studies have shown that KCNN2 blockers have therapeutic effects to improve learning and memory in several mouse and rat models of neuropsychiatric disorders associated with increased KCNN2 expression.[21–24]

rat = tested on: rat; design: method as in 2 sources, one per row (each row's own in cited_ref): ref 82 = [82]; PMID 15985330; doi:10.1016/j.neulet.2005.05.050; 82. Deschaux O , Bizot JC . Apamin produces selective improvements of learning in rats . Neurosci Lett. 2005; 386 : 5 – 8 . 10.1016/j.neulet.2005.05.050 15985330 ||| ref 26, 82, 83 = [26]; PMID 18561910; doi:10.1016/j.ejphar.2008.05.019; 26. Mpari B , Sreng L , Regaya I , Mourre C . Small-conductance Ca(2+)-activated K(+) channels: heterogeneous affinity in rat brain structures and cognitive modulation by specific blockers . Eur J Pha || [82]; PMID 15985330; doi:10.1016/j.neulet.2005.05.050; 82. Deschaux O , Bizot JC . Apamin produces selective improvements of learning in rats . Neurosci Lett. 2005; 386 : 5 – 8 . 10.1016/j.neulet.2005.05.050 15985330 || [83]; PMID 9148239; doi:10.1016/s0304-3940(97)13367-5; 83. Deschaux O , Bizot JC , Goyffon M . Apamin improves learning in an object recognition task in rats . Neurosci Lett. 1997; 222 : 159 – 162 . 10.1016/s0304-3940(97)13367-5 9148239; settings: cited from earlier work
KCNN2 = settings: compared with Lei-Dab7; cited from earlier work
Text: KCNN2 plays a key role in regulating neuronal excitability by controlling the medium afterhyperpolarization.[20] Previous studies have shown that KCNN2 blockers have therapeutic effects to improve learning and memory in several mouse and rat models of neuropsychiatric disorders associated with increased KCNN2 expression.[21–24] […] In the current study, we used another KCNN2 blocker, Lei-Dab7 (a synthetic derivative of leiurotoxin), a peptide isolated from the venom of the yellow scorpion (L. quinquestriatus hebraeus). […] We evaluated intranasal administ ... || Taken together, our findings advocate for the therapeutic potential of Lei-Dab7 or other KCNN2 blockers for FASD and possibly other neurodevelopmental diseases that similarly involve KCNN2 upregulation, such as Angelman syndrome.[21] Lei-Dab7 stands out for its high potency and specificity in blocking the KCNN2 channel. […] Despite outstanding properties, Lei-Dab7’s bioavailability, efficacy, and toxicity as a the ...

[3] = tested on: older adults affected by Alzheimer disease or mild cognitive impairment; settings: intranasal; older adults with Alzheimer disease or mild cognitive impairment; cited from earlier work
Text: (§1) The potential of intranasal delivery in treating a broad spectrum of neurological disorders, especially those related to memory and cognition, is noteworthy.[28] Historically, intranasal administration has gained attention in clinical trials as an effective delivery method, especially for small molecules ...

[4] = intranasal vs subcutaneous or intramuscular administration; cited from earlier work
Text: as §1

[5] = tested on: neurodevelopmental disorders such as autism spectrum disorder; settings: nasal application; cited from earlier work
Text: as §1

Chain of human KCNN2 (Q9H2S1 whole entry): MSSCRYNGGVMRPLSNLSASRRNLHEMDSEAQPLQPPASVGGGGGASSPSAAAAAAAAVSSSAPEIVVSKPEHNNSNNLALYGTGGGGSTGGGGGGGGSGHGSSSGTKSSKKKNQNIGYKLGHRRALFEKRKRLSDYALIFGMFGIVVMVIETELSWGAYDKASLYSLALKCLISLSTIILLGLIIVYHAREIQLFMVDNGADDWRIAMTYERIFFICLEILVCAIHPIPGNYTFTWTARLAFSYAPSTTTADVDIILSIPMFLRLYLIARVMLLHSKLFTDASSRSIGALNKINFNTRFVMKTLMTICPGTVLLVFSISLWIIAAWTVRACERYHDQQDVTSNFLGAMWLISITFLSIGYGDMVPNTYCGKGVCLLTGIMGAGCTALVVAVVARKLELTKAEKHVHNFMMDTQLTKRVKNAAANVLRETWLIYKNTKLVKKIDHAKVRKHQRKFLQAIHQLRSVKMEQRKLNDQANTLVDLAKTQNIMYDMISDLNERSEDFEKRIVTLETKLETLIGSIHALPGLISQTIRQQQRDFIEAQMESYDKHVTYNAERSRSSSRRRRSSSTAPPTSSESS

In the case of `c1cc2cc(c1)C[n+]1ccc(c3ccccc31)NCc1ccc(cc1)CNc1cc[n+](c3ccccc13)C2` [UCL 1684], the “KCNN (SK) channel blocking specificity” value (KCNN (SK) channel) is given as “nonspecific KCNN (SK) channel blockers”.

For `c1ccc2c(c1)c1cc[n+]2CCCCC[n+]2ccc(c3ccccc32)NCCCCCN1` [UCL 1848], the “KCNN (SK) channel blocking specificity” value (KCNN (SK) channel) is given as “nonspecific KCNN (SK) channel blockers”.

For `CN1CCc2cc3c(cc2[C@H]1[C@@H]1OC(=O)c2c1ccc1c2OCO1)OCO3` [bicuculline], the “KCNN (SK) channel blocking specificity” value (KCNN (SK) channel) is listed as “nonspecific KCNN (SK) channel blockers”.

In the case of `CCO` [ethanol], the “dam's blood alcohol concentration” value [1] is given as 140 to 300 mg/dL.

In the case of `CC[C@H](C)[C@@H]1NC(=O)[C@@H]2CSSC[C@H](NC(=O)[C@H](Cc3ccccc3)NC(=O)[C@H](C)N)C(=O)N[C@@H](CC(N)=O)C(=O)N[C@@H](CC(C)C)C(=O)N[C@@H](CCCNC(=N)N)C(=O)N[C@@H](CCCNC(=N)N)C(=O)N[C@H]3CSSC[C@H](NC(=O)[C@H](CCC(=O)O)NC(=O)[C@H](CCC(=O)O)NC(=O)CNC1=O)C(=O)N[C@@H](CCCCN)C(=O)N[C@H](C(=O)N[C@H](C(=O)N1CCC[C@H]1C(=O)N[C@@H](Cc1ccc(O)cc1)C(N)=O)C(C)C)CSSC[C@H](NC(=O)[C@H](CO)NC(=O)[C@H](CC(C)C)NC(=O)[C@H](CCC(=O)O)NC3=O)C(=O)N[C@@H](CCCNC(=N)N)C(=O)N[C@@H](CO)C(=O)N[C@@H](CC(C)C)C(=O)NCC(=O)N[C@@H](CC(C)C)C(=O)N[C@@H](CC(C)C)C(=O)NCC(=O)N[C@@H](CCCCN)C(=O)N2` [tamapin] (H-AFCNLRRCELSCRSLGLLGKCIGEECKCVPY-NH2; disulfide 3-21, 8-26, 12-28), the pIC50 (human KCNN2) is given as 7.30 and the “crosses the blood brain barrier” value [2] is given as “crosses the blood brain barrier”.

For “apamin (CNCKAPETALCARRCQQH-NH2; disulfide 1-11, 3-15; UniProt P01500 28-45, looked up)”, the effect on learning (rat) is given as “promote learning”, the “KCNN2 selectivity in words” value (KCNN2) is given as “less selective KCNN2 blocker” and the “KCNN (SK) channel blocking specificity” value (KCNN (SK) channel) is given as “nonspecific KCNN (SK) channel blockers”.

For insulin, the memory effect [3] is given as “improving memory”.

For “mouse [D-Leu-4]OB3 [synthetic leptin-like peptide]”, the “brain bioavailability, intranasal vs other methods (times)” value [4] is given as 4 times.

In the case of oxytocin, the “efficacy, repeated doses” value [5] is given as “inconsistent” and the “efficacy, single administration” value [5] is given as “promising”.

For “scyllatoxin (AFCNLRMCQLSCRSLGLLGKCIGDKCECVKH; UniProt P16341 1-31, looked up)”, the “KCNN (SK) channel blocking specificity” value (KCNN (SK) channel) is given as “nonspecific KCNN (SK) channel blockers”.
